From patent US20100119483A1, “PEPTIDE VIRAL ENTRY INHIBITORS” (Schering Corporation, priority 2004, published 2010)
“And” between values parts separate entries of the source, which are not always exact repeats. Equal values may be shown once.

Test system: HCV pseudoparticles
Test: HCV pseudoparticle (HCVpp) entry assay in Huh7 hepatoma cells, luciferase readout
Type: cell-based, hepatitis C virus
Settings: for % of control at ~30 uM: percentage of hepatitis C virus cellular entry at 30 μM peptide vs uninhibited control; for HCVpp % inh: truncated peptides tested at 50 uM in 1% DMSO
Experimental: HCV pseudotype particle generation. Single cycle HCV pseudoparticles are composed of a replication-defective HIV genome and HCV envelope proteins. These pseudoparticles were made by transfecting 293T cells with 5 ug of each pNL43E-R-luc (Chen et al., J. Virol. 68(2):654-60 (1994)) and plasmid expressing HCV envelope proteins pCMV/E1-2 with profection transfection kit from Promega (Madison, Wis.). The medium was refreshed 12-24 hours after transfection and supernatant was collected 48 hours after transfection. The supernatant from a transfection of only pNL43E-R-luc was used each time as a control for non specific entry events.
Infection of hepatoma cell lines with HCV pseudotype particles and screen for inhibitory peptides. The hepatoma cells, Huh7, was seeded at 8000 cells in 90 ul medium in 96-well plate. In the case of the inhibitor screen, the inhibitor was incubated with cells for one hour at 37° C. and then 50 ul viral supernatant was added to the cells 24 hours after seeding. The viral stock was pre-tittered and diluted to yield approximately 10,000 to 20,000 RLU. The cells were incubated at 37° C. with 5% CO2 for additional 72 hours and were harvested for luciferase assay. Peptide stocks were prepared in 100% DMSO at 10 mg/ml and were first screened at 100 ug/ml and then a dose responsive curve was generated with 10 points 3-fold titration starting from 100 ug/ml.
The peptide of SEQ ID NO: 77 was first serial diluted by the factor of 3 in 100% DMSO from 100 ug/ml and then transferred to the assay plates at 100-fold dilution. The peptide was first incubated with cells and HCVpp (A) or HIVpp (B), respectively, for 30 minutes at […] in this experiment. Then, the medium containing the peptide was removed from the cells and virus with peptide was added to the cells. Cells were incubated for 72 hours and then were harvested for luciferase assay. Two separate trials were performed.
In addition, the peptide of SEQ ID NO: 77 was mutated at several positions and assayed in the HCV entry assay discussed above. […] The assays were performed essentially as described above.

[1] = 0.1 nM of peptide (printed for three rows), two values per peptide and row
[2] = 0.3 nM of peptide, two values per peptide
[3] = 1 nM of peptide, two values per peptide
[4] = 3 nM of peptide, two values per peptide
[5] = 10 nM of peptide, two values per peptide
[6] = 30 nM of peptide, two values per peptide
[7] = 100 nM of peptide, two values per peptide
[8] = 300 nM of peptide, two values per peptide
[9] = 10000 nM of peptide, two values per peptide
[10] = 30000 nM of peptide, two values per peptide

A-K-K-W-E-Y-V-L-L-L-E-L-L [SEQ ID NO: 102]
% control (HCVpp entry), lysine scanning [1]: 104 % control and 102 % control and 89 % control and 108 % control and 98 % control and 106 % control | % control (HCVpp entry), lysine scanning [2]: 141 % control and 107 % control | % control (HCVpp entry), lysine scanning [3]: 96 % control and 83 % control | % control (HCVpp entry), lysine scanning [4]: 70 % control and 66 % control | % control (HCVpp entry), lysine scanning [5]: 67 % control and 62 % control | % control (HCVpp entry), lysine scanning [6]: 33 % control and 41 % control | % control (HCVpp entry), lysine scanning [7]: 16 % control and 25 % control | % control (HCVpp entry), lysine scanning [8]: 29 % control and 23 % control | % of control at ~30 uM: 5%

A-I-K-W-E-Y-V-L-A-L-F-L-L (AIKWEYVLALFLL; HCV peptide) [SEQ ID NO: 94, Ala-scan]
% control (HCVpp entry), alanine scanning [1]: 99 % control and 96 % control and 79 % control and 101 % control and 115 % control and 105 % control | % control (HCVpp entry), alanine scanning [2]: 104 % control and 92 % control | % control (HCVpp entry), alanine scanning [3]: 81 % control and 82 % control | % control (HCVpp entry), alanine scanning [4]: 58 % control and 89 % control | % control (HCVpp entry), alanine scanning [5]: 79 % control and 86 % control | % control (HCVpp entry), alanine scanning [6]: 58 % control and 48 % control | % control (HCVpp entry), alanine scanning [7]: 45 % control and 41 % control | % control (HCVpp entry), alanine scanning [8]: 42 % control and 33 % control | % control (HCVpp entry), alanine scanning [9]: 36 % control and 34 % control | % control (HCVpp entry), alanine scanning [10]: 14 % control and 28 % control | % of control at ~30 uM: 17%

S-F-A-I-K-W-E-Y-V-L-L-L-F-L-L [SEQ ID NO: 104]
HCVpp % inh: 91%

F-A-I-K-W-E-Y-V-L-L-L-F-L-L [SEQ ID NO: 105]
HCVpp % inh: 95%

A-I-K-W-E-Y-V-L-L-L-F-L-L [SEQ ID NO: 106]
HCVpp % inh: 92%

A-I-K-W-E-Y-V-L-L-L-A-L-L (AIKWEYVLLLALL; HCV peptide) [SEQ ID NO: 95, Ala-scan]
% control (HCVpp entry), alanine scanning [1]: 82 % control and 89 % control and 76 % control and 114 % control and 97 % control and 113 % control | % control (HCVpp entry), alanine scanning [2]: 70 % control and 62 % control | % control (HCVpp entry), alanine scanning [3]: 72 % control and 91 % control | % control (HCVpp entry), alanine scanning [4]: 52 % control and 85 % control | % control (HCVpp entry), alanine scanning [5]: 47 % control and 64 % control | % control (HCVpp entry), alanine scanning [7]: 53 % control and 35 % control | % control (HCVpp entry), alanine scanning [8]: 13 % control and 18 % control | % control (HCVpp entry), alanine scanning [9]: 15 % control and 25 % control | % of control at ~30 uM: 8%

A-I-K-P-E-Y-V-L-L-L-F-L-L (AIKPEYVLLLFLL; HCV peptide) [SEQ ID NO: 118]
% control (HCVpp entry), proline scanning [1]: 87 % control and 80 % control and 108 % control and 103 % control and 79 % control and 110 % control | % control (HCVpp entry), proline scanning [2]: 92 % control and 101 % control | % control (HCVpp entry), proline scanning [3]: 99 % control and 74 % control | % control (HCVpp entry), proline scanning [4]: 84 % control and 108 % control | % control (HCVpp entry), proline scanning [5]: 83 % control and 116 % control | % control (HCVpp entry), proline scanning [6]: 93 % control and 63 % control | % control (HCVpp entry), proline scanning [7]: 53 % control and 47 % control | % control (HCVpp entry), proline scanning [8]: 29 % control and 38 % control | % control (HCVpp entry), proline scanning [10]: 33 % control and 24 % control

A-I-K-W-E-Y-V-L-L-L-F-L-P [SEQ ID NO: 127]
% control (HCVpp entry), proline scanning [1]: 90 % control and 86 % control and 75 % control and 122 % control and 113 % control | % control (HCVpp entry), proline scanning [2]: 84 % control and 81 % control | % control (HCVpp entry), proline scanning [3]: 71 % control and 85 % control | % control (HCVpp entry), proline scanning [4]: 66 % control and 53 % control | % control (HCVpp entry), proline scanning [5]: 102 % control and 74 % control | % control (HCVpp entry), proline scanning [6]: 78 % control and 83 % control | % control (HCVpp entry), proline scanning [7]: 77 % control and 74 % control | % control (HCVpp entry), proline scanning [8]: 63 % control and 72 % control | % control (HCVpp entry), proline scanning [9]: 29 % control and 27 % control | % control (HCVpp entry), proline scanning [10]: 57 % control and 29 % control

A-I-K-A-E-Y-V-L-L-L-F-L-L (AIKAEYVLLLFLL; HCV peptide) [SEQ ID NO: 89, Ala-scan]
% control (HCVpp entry), alanine scanning [1]: 76 % control and 84 % control and 95 % control and 104 % control and 105 % control and 96 % control | % control (HCVpp entry), alanine scanning [2]: 64 % control and 71 % control | % control (HCVpp entry), alanine scanning [3]: 96 % control and 85 % control | % control (HCVpp entry), alanine scanning [4]: 76 % control and 63 % control | % control (HCVpp entry), alanine scanning [5]: 57 % control and 63 % control | % control (HCVpp entry), alanine scanning [6]: 71 % control and 66 % control | % control (HCVpp entry), alanine scanning [7]: 38 % control and 41 % control | % control (HCVpp entry), alanine scanning [8]: 27 % control and 24 % control | % control (HCVpp entry), alanine scanning [9]: 17 % control and 24 % control | % of control at ~30 uM: 8%

A-I-K-W-E-Y-V-L-L-L-F-L-K [SEQ ID NO: 137]
% control (HCVpp entry), lysine scanning [1]: 72 % control and 123 % control and 80 % control and 82 % control and 103 % control and 135 % control | % control (HCVpp entry), lysine scanning [2]: 58 % control and 92 % control | % control (HCVpp entry), lysine scanning [3]: 80 % control and 106 % control | % control (HCVpp entry), lysine scanning [4]: 82 % control and 97 % control | % control (HCVpp entry), lysine scanning [5]: 100 % control and 89 % control | % control (HCVpp entry), lysine scanning [6]: 78 % control and 94 % control | % control (HCVpp entry), lysine scanning [7]: 68 % control and 74 % control | % control (HCVpp entry), lysine scanning [8]: 54 % control and 77 % control | % control (HCVpp entry), lysine scanning [9]: 23 % control and 28 % control

K-I-K-W-E-Y-V-L-L-L-F-L-L [SEQ ID NO: 101]
% control (HCVpp entry), lysine scanning [1]: 83 % control and 107 % control and 77 % control and 104 % control and 119 % control and 101 % control | % control (HCVpp entry), lysine scanning [2]: 96 % control and 103 % control | % control (HCVpp entry), lysine scanning [3]: 65 % control and 90 % control | % control (HCVpp entry), lysine scanning [4]: 52 % control and 77 % control | % control (HCVpp entry), lysine scanning [5]: 54 % control and 57 % control | % control (HCVpp entry), lysine scanning [6]: 37 % control and 28 % control | % control (HCVpp entry), lysine scanning [7]: 26 % control and 25 % control | % control (HCVpp entry), lysine scanning [8]: 26 % control and 29 % control | % of control at ~30 uM: 4%

A-I-K-W-E-Y-V-L-L-K-F-L-L (AIKWEYVLLKFLL; HCV peptide) [SEQ ID NO: 134]
% control (HCVpp entry), lysine scanning [1]: 80 % control and 96 % control and 108 % control and 75 % control and 138 % control and 79 % control | % control (HCVpp entry), lysine scanning [2]: 104 % control and 85 % control | % control (HCVpp entry), lysine scanning [3]: 128 % control and 81 % control | % control (HCVpp entry), lysine scanning [4]: 94 % control and 92 % control | % control (HCVpp entry), lysine scanning [5]: 105 % control and 77 % control | % control (HCVpp entry), lysine scanning [6]: 101 % control and 76 % control | % control (HCVpp entry), lysine scanning [7]: 89 % control and 87 % control | % control (HCVpp entry), lysine scanning [8]: 75 % control and 68 % control | % control (HCVpp entry), lysine scanning [9]: 60 % control and 47 % control | % control (HCVpp entry), lysine scanning [10]: 56 % control and 45 % control

A-I-K-W-E-Y-V-L-L-P-F-L-L (AIKWEYVLLPFLL; HCV peptide) [SEQ ID NO: 124]
% control (HCVpp entry), proline scanning [1]: 87 % control and 98 % control and 89 % control and 104 % control and 109 % control and 97 % control | % control (HCVpp entry), proline scanning [2]: 74 % control and 88 % control | % control (HCVpp entry), proline scanning [3]: 89 % control and 102 % control | % control (HCVpp entry), proline scanning [4]: 80 % control and 86 % control | % control (HCVpp entry), proline scanning [5]: 67 % control and 102 % control | % control (HCVpp entry), proline scanning [6]: 48 % control and 71 % control | % control (HCVpp entry), proline scanning [7]: 66 % control and 83 % control | % control (HCVpp entry), proline scanning [8]: 85 % control and 68 % control | % control (HCVpp entry), proline scanning [9]: 85 % control and 60 % control | % control (HCVpp entry), proline scanning [10]: 98 % control and 67 % control

A-I-K-W-P-Y-V-L-L-L-F-L-L (AIKWPYVLLLFLL; HCV peptide) [SEQ ID NO: 119]
% control (HCVpp entry), proline scanning [1]: 93 % control and 76 % control and 87 % control and 85 % control and 102 % control and 126 % control | % control (HCVpp entry), proline scanning [2]: 78 % control and 77 % control | % control (HCVpp entry), proline scanning [3]: 72 % control and 68 % control | % control (HCVpp entry), proline scanning [4]: 94 % control and 62 % control | % control (HCVpp entry), proline scanning [5]: 54 % control and 48 % control | % control (HCVpp entry), proline scanning [7]: 40 % control and 46 % control | % control (HCVpp entry), proline scanning [8]: 40 % control and 47 % control | % control (HCVpp entry), proline scanning [10]: 28 % control and 17 % control
